Results published in publication PMC5599593, “A general reaction mechanism for carbapenem hydrolysis by mononuclear and binuclear metallo-β-lactamases” (Nature Communications, 2017).

Assays:
Type in all cases: biochemical
[1] = target: T1, bi-Zn(II)-BcII (Bacillus cereus, UniProt P04190); experiment: rapid-freeze-quench X-ray absorption spectroscopy; conditions: 10 ms reaction
T1 construct: gene blm; expressed as N-terminal GST fusion, GST removed with thrombin; bi-Zn(II) form

[2] = target: T2, bi-Zn(II)-NDM-1 (Klebsiella pneumoniae, UniProt C7C422); experiment: stopped-flow absorption, single turnover; conditions: 100 mM Hepes pH 7.5, 200 mM NaCl, 300 µM ZnSO4, 6 °C
T2 construct: gene blaNDM-1

[3] = target: T3, mono-Zn(II)-Sfh-I (Serratia fonticola, UniProt Q9RMI1); experiment: stopped-flow absorption (pre-steady state); RFQ Zn K-edge XAS of ES complex; conditions: 50 mM Hepes pH 7, 4 °C
T3 construct: gene sfhI; expressed from pET-26b; anion exchange and size exclusion purification; mono-Zn(II) form

[4] = target: T2, bi-Zn(II)-NDM-1; experiment: stopped-flow absorption; conditions: 100 mM Hepes pH 7.5, 200 mM NaCl, 300 µM ZnSO4, 6 °C

T2 sequence (C7C422 27-270 limits assumed): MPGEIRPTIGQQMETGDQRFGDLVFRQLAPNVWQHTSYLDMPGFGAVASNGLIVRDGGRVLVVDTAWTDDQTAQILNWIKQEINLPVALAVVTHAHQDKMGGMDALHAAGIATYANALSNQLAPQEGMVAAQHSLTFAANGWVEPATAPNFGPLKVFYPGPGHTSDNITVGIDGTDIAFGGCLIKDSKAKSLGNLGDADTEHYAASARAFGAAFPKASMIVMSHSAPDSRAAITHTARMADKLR
T3 sequence (Q9RMI1 entry or part of it): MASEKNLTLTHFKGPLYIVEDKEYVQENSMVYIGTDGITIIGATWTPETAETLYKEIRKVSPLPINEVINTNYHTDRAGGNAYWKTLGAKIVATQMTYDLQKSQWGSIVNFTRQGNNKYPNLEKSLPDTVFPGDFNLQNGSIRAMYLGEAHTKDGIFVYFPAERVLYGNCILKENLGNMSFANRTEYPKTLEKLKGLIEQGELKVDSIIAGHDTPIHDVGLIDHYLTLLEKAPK
T1 sequence (P04190 31-257): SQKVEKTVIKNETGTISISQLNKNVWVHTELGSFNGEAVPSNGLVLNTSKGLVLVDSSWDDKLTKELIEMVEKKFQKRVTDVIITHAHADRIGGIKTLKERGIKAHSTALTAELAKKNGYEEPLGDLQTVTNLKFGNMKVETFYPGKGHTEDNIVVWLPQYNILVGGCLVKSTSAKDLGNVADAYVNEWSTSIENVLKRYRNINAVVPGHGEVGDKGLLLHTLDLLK

SMILES	rapid-freeze-quench X-ray absorption spectroscopy [1]	stopped-flow absorption, single turnover [2]	stopped-flow absorption (pre-steady state); RFQ Zn K-edge XAS of ES complex [3]	stopped-flow absorption [4]
C[C@@H](O)[C@H]1C(=O)N2C(C(=O)O)=C(SCCN=CN)C[C@H]12 [imipenem]	X-ray absorption spectroscopy to analyse hydrolysis of imipenem by the B1 enzyme bi-Zn(II)-BcII	Hydrolysis of imipenem by bi-Zn(II)-NDM-1 under single turnover conditions	imipenem hydrolysis by the mono-Zn(II) B2 lactamase Sfh-I	–
C[C@@H](O)[C@H]1C(=O)N2C(C(=O)O)=C(S[C@@H]3CN[C@H](C(=O)N(C)C)C3)[C@H](C)[C@H]12 [meropenem]	–	–	–	We also assayed hydrolysis of another carbapenem, meropenem, by bi-Zn(II)-NDM-1
